Results published in patent US6534508B2, “Methods and compositions for treating infection using optically pure (S)-lomefloxacin” (priority 1991, dated 2003).
≈ marks a conversion by molar mass, not a printed value. Read-outs that look alike come from different tables or passages of the source.

Columns and labels:
M. tuberculosis [1] = details: 79 strains susceptible to conventional drug therapy; cited from earlier work
M. marinum ATCC 927 = assay: Broth microdilution MIC, M. marinum ATCC 927; type: cell-based
M. tuberculosis [2] = assay: Broth microdilution MIC, M. tuberculosis isolates; type: cell-based; details: 12 strains, 14 days incubation, 7H9 broth
M. avium = assay: Broth microdilution MIC, M. avium isolates; type: cell-based; details: 11 strains, 7 days incubation, 7H9 broth
[3] = human, in vivo, cited from earlier work
M. kansasii = assay: Broth microdilution MIC, M. kansasii isolates; type: cell-based; details: 10 strains, 7 days incubation, 7H9 broth
M. chelonei C315 = assay: Broth microdilution MIC, M. chelonei C315; type: cell-based; details: for MIC50: as worded in conclusions, single strain
β-adrenergic = details: L-form vs D-enantiomer; cited from earlier work
[4] = 1 strain, 7 days incubation at 30° C., 7H9 broth
[5] = as worded in conclusions, single strain
[6] = 1 strain, 4 days incubation, 7H9 broth

Row | SMILES | Susceptibility, Range (M. tuberculosis [2]) [µg/mL] | Susceptibility, Range (M. avium) [µg/mL] | Susceptibility, MIC90 (M. kansasii) [µg/mL] | Susceptibility, Range (M. kansasii) [µg/mL] | Susceptibility, MIC (M. marinum ATCC 927; [4]) [µg/mL] | MIC (M. marinum ATCC 927; [5]) [µg/mL] | Susceptibility, MIC50 (M. tuberculosis [2]) [µg/mL] | Susceptibility, MIC50 (M. avium) [µg/mL] | Susceptibility, MIC90 (M. avium) [µg/mL] | Susceptibility, MIC50 (M. kansasii) [µg/mL] | Susceptibility, MIC (M. chelonei C315; [6]) [µg/mL] | MIC50 (M. chelonei C315) [µg/mL] | also measured
1 | CCn1cc(C(=O)O)c(=O)c2cc(F)c(N3CCNC(C)C3)c(F)c21 (racemic) [LM, 1-ethyl-6,8-difluoro-1,4-dihydro-7-(3-methyl-lpiperazinyl)-4-oxo-3-quinolinecarboxylic acid] | 0.5 to 2 | 4 to 16 | 2.0 | 1 to 2 | – | – | – | – | – | – | – | – | MIC50 (M. tuberculosis [1]): 0.96 µg/mL (≈ 2.73 µM); MIC90 (M. tuberculosis [1]): 1.02 µg/mL (≈ 2.9 µM); MIC (M. marinum ATCC 927; Mycobacterium marinum, ATCC927, 168 h, 1 strain, 7 days incubation at 30° C., 7H9 broth, read-out: Susceptibility, MIC): 4 µg/mL (≈ 11.4 µM); MIC50 (M. marinum ATCC 927; Mycobacterium marinum, ATCC927, as worded in conclusions, single strain): 4 µg/mL (≈ 11.4 µM); MIC50 (M. tuberculosis [2]; Mycobacterium tuberculosis, 336 h, read-out: Susceptibility, MIC50): 1 µg/mL (≈ 2.85 µM); MIC90 (M. tuberculosis [2]; Mycobacterium tuberculosis, 336 h, read-out: Susceptibility, MIC90): 2 µg/mL (≈ 5.69 µM); MIC50 (M. avium; Mycobacterium avium, 168 h, read-out: Susceptibility, MIC50): 8 µg/mL (≈ 22.8 µM); MIC90 (M. avium; Mycobacterium avium, 168 h, read-out: Susceptibility, MIC90): 16 µg/mL (≈ 45.5 µM); average elimination half-life ([3]; po): approximately 8 hours; prolongation of the half-life [3]: up to 24 hours; MIC50 (M. kansasii; Mycobacterium kansasii, 168 h, read-out: Susceptibility, MIC50): 1 µg/mL (≈ 2.85 µM); MIC90 (M. kansasii; Mycobacterium kansasii, 168 h, read-out: Susceptibility, MIC90): 2 µg/mL (≈ 5.69 µM); MIC (M. chelonei C315; Mycobacteroides abscessus, C315, 96 h, 1 strain, 4 days incubation, 7H9 broth, read-out: Susceptibility, MIC): 4 µg/mL (≈ 11.4 µM); MIC50 (M. chelonei C315; Mycobacteroides abscessus, C315, read-out: MIC50): 4 µg/mL (≈ 11.4 µM)
2 | CCn1cc(C(=O)O)c(=O)c2cc(F)c(N3CCN[C@H](C)C3)c(F)c21 [R-LM, (R)-lomefloxacin] | 1 to 4 | 4 to 32 | 4 | 2 to 4 | 4 | 4.0 (≈ 11.4 µM) | 2 | 16 | 32 | 2 | 4 | 4.0 (≈ 11.4 µM) | Susceptibility, MIC90 (M. tuberculosis [2]): 4 µg/mL; Susceptibility, MIC90 (M. kansasii; listed as (R)-LM): 4.0 µg/mL
3 | CC(C)NC[C@H](O)COc1cccc2ccccc12 [L-form of propranolol, propranolol] | – | – | – | – | – | – | – | – | – | – | – | – | potency relative to the D-enantiomer (β-adrenergic): 100 times
4 | CCn1cc(C(=O)O)c(=O)c2cc(F)c(N3CCN[C@@H](C)C3)c(F)c21 [S-LM, (S)-lomefloxacin] | 0.25 to 1 | 2 to 16 | 2 | 1 to 2 | 2 | 2.0 (≈ 5.69 µM) | 0.5 | 8 | 16 | 1 | 2 | 2.0 (≈ 5.69 µM) | Susceptibility, MIC90 (M. kansasii; listed as (S)-LM): 2.0 µg/mL
